Source: US20240408085A1, “COMPOUND FOR DEGRADATION OF BCL-2 FAMILY PROTEINS AND MEDICAL APPLICATION THEREOF” (XIZANG HAISCO PHARMACEUTICAL CO., LTD., priority 2021, published 2024)
Where two headings read alike, the source gives them in different places. Values belong to the compound of their own block, whether it stands above or below them.

Columns and labels:
BCL-xL proteins = target: T1, BCL-xL proteins (Homo sapiens, UniProt Q07817); experiment: BCL-xL degradation activity in MOLT-4 cells (western blot, 16 h); assay type: cell-based
T1 construct: degradation effect on the BCL-xL proteins in MOLT-4 cells; host or cells: MOLT-4
T1 sequence (Q07817 whole entry): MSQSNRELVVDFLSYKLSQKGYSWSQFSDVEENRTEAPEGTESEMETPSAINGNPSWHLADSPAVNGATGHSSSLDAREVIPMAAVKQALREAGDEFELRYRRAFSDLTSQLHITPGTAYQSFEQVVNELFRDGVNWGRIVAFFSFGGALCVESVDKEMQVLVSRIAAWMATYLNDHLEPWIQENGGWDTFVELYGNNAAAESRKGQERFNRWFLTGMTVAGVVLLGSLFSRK
Experimental: MOLT-4 cells are acute lymphoblastic leukemia cell lines in humans. The cells were purchased from ATCC. Culture conditions: RPMI-1640+10% FBS+1% penicillin-streptomycin solution. The cells were cultured in a 37° C., 5% CO2 incubator. The cells were plated in a 12-well plate, with 2×10^5 cells/well. After plating, compounds at different concentrations were added and cultured in a 37° C., 5% CO2 incubator for 16 h. After the completion of culture, the cells were harvested and RIPA lysis buffer (beyotime, Cat. P0013B) was added. The cells were lysed on ice for 15 minutes and centrifuged at 12000 rpm at 4° C. for 10 minutes. The supernatant protein samples were collected and the protein was quantified by using the BCA kit (Beyotime, Cat. P0009). Then the protein was diluted to 0.8 mg/mL. The expressions of BCL-xL (CST, Cat. 2764S), BCL-2 (CST, Cat. 15071S) and the internal reference β-actin (CST, Cat. 3700S) were detected using a fully automated western blot quantitative analyzer (Proteinsimple). The expression level of BCL-xL or BCL-2 relative to the internal reference was calculated by using Compass software, and the DC50 value was calculated by using GraphPad Prism 8.0 software according to formula (1), wherein the Proteinadministration denoted the relative expression level of BCL-xL or BCL-2 in administration groups at different doses, and the Proteinvehicle denoted the relative expression level of BCL-xL or BCL-2 in the vehicle control group.
Protein %=Proteinadministration/Proteinvehicle×100% formula (1)

platelet (PLT) = experiment: Effect on platelet (PLT) after single intravenous injection; assay type: in vivo, SD rats
Experimental: Experimental animal: 78 SD rats, with an equal number of males and females, male (♂): 290-380 g, female (♀): 220-290 g, 8-10 weeks old, purchased from Zhejiang Vital River Laboratory Animal Technology Co., Ltd.
Experimental protocol: a clear solution was formulated using a vehicle ([…]). The animals were dosed via tail vein a single time (administration volume: 20 mL/kg; bolus injection period: about 4 minutes; recovery period: 7 days).

MOLT-4 cells = experiment: Cell proliferation activity in MOLT-4 cells (72 h, cell viability luminescence); assay type: cell-based, human; conditions: read-out: IC50 for the inhibition of MOLT-4 cell proliferation
Procedure, shortened: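 Human acute lymphoblastic leukemia cells were seeded at 5×10^3 cells/well in RPMI-1640 with 10% FBS. They were treated with serially varied compound concentrations for 72 h at 37° C., 5% CO2. A luminescent viability reagent was used for read-out. IC50 was derived relative to vehicle control; maximum inhibition was the inhibition rate at the highest concentration.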

Structure (SMILES): Cc1ncsc1-c1ccc([C@H](C)NC(=O)[C@@H]2C[C@@H](O)CN2C(=O)[C@@H](NC(=O)CCCCCC(=O)N2CCN(CC[C@H](CSc3ccccc3)Nc3ccc(S(=O)(=O)NC(=O)c4ccc(N5CCN(CC6=C(c7ccc(Cl)cc7)CCC7(CC7)C6)CC5)cc4)cc3S(=O)(=O)C(F)(F)F)CC2)C(C)(C)C)cc1 [Compound 11, (2S,4R)-1-((S)-2-(7-(4-((R)-3-((4-(N-(4-(4-((6-(4-chlorophenyl)spiro[2.5]oct-5-en-5-yl)methyl)piperazin-1-yl)benzoyl)sulfamoyl)-2-((trifluoromethyl)sulfonyl)phenyl)amino)-4-(phenylthio)butyl)piperazin-1-yl)-7-oxoheptanamido)-3,3-dimethylbutanoyl)-4-hydroxy-N—((S)-1-(4-(4-methylthiazol-5-yl)phenyl)ethyl)pyrrolidine-2-carboxamide]
DC50 (BCL-xL proteins): 5.3 nM | IC50 (MOLT-4 cells; Homo sapiens): < 500 nM

Structure (SMILES): Cc1ncsc1-c1ccc([C@H](C)NC(=O)[C@@H]2C[C@@H](O)CN2C(=O)[C@@H](NC(=O)CCCCCC(=O)N2C[C@H]3C[C@@H]2CN3CC[C@H](CSc2ccccc2)Nc2ccc(S(=O)(=O)NC(=O)c3ccc(N4CCN(CC5=C(c6ccc(Cl)cc6)CCC6(CC6)C5)CC4)cc3)cc2S(=O)(=O)C(F)(F)F)C(C)(C)C)cc1 [Compound 19, (2S,4R)-1-((S)-2-(7-((1R,4R)-5-((R)-3-((4-(N-(4-(4-((6-(4-chlorophenyl)spiro[2.5]oct-5-en-5-yl)methyl)piperazin-1-yl)benzoyl)sulfamoyl)-2-((trifluoromethyl)sulfonyl)phenyl)amino)-4-(phenylthio)butyl)-2,5-diazabicyclo[2.2.1]heptan-2-yl)-7-oxoheptanamido)-3,3-dimethylbutanoyl)-4-hydroxy-N—((S)-1-(4-(4-methylthiazol-5-yl)phenyl)ethyl)pyrrolidine-2-carboxamide]
DC50 (BCL-xL proteins): 10.7 nM | IC50 (MOLT-4 cells; Homo sapiens): < 500 nM

Structure (SMILES): Cc1ncsc1-c1ccc([C@H](C)NC(=O)[C@@H]2C[C@@H](O)CN2C(=O)[C@@H](NC(=O)CCCCCC(=O)N2C[C@H]3CN(CC[C@H](CSc4ccccc4)Nc4ccc(S(=O)(=O)NC(=O)c5ccc(N6CCN(CC7=C(c8ccc(Cl)cc8F)CCC(C)(C)C7)CC6)cc5)cc4S(=O)(=O)C(F)(F)F)C[C@H]3C2)C(C)(C)C)cc1 (relative stereo) [Compound 14, cis-(2S,4R)-1-((S)-2-(7-(5-((R)-3-((4-(N-(4-(4-((4′-chloro-2′-fluoro-4,4-dimethyl-3,4,5,6-tetrahydro-[1,1′-biphenyl]-2-yl)methyl)piperazin-1-yl)benzoyl)sulfamoyl)-2-((trifluoromethyl)sulfonyl)phenyl)amino)-4-(phenylthio)butyl)hexahydropyrrolo[3,4-c]pyrrol-2(1H)-yl)-7-oxoheptanamido)-3,3-dimethylbutanoyl)-4-hydroxy-N—((S)-1-(4-(4-methylthiazol-5-yl)phenyl)ethyl) pyrrolidine-2-carboxamide]
DC50 (BCL-xL proteins): 8.1 nM | IC50 (MOLT-4 cells): < 500 nM

The next lines start with the values.

DC50 (BCL-xL proteins): > 20 nM | Effect on PLT (↓ decrease) (platelet (PLT); SD rats ♀, 6 mg/kg single i.v., 4 h): ↓24% | Effect on PLT (↓ decrease) (platelet (PLT); SD rats ♀, 6 mg/kg single i.v., D2): ↓78% | Effect on PLT (↓ decrease) (platelet (PLT); SD rats ♀, 20 mg/kg single i.v., 4 h): ↓89% | Effect on PLT (↓ decrease) (platelet (PLT); SD rats ♀, 20 mg/kg single i.v., D2): ↓96% | Effect on PLT (↓ decrease) (platelet (PLT); SD rats ♀, 60 mg/kg single i.v., D8): ↓87% | Effect on PLT (↓ decrease) (platelet (PLT); SD rats ♂, 6 mg/kg single i.v., 4 h): ↓26% | Effect on PLT (↓ decrease) (platelet (PLT); SD rats ♂, 6 mg/kg single i.v., D2): ↓69% | Effect on PLT (↓ decrease) (platelet (PLT); SD rats ♂, 20 mg/kg single i.v., 4 h): ↓81% | Effect on PLT (↓ decrease) (platelet (PLT); SD rats ♂, 20 mg/kg single i.v., D2): ↓91% | Effect on PLT (↓ decrease) (platelet (PLT); SD rats ♂, 60 mg/kg single i.v., D8): ↓73%
Structure (SMILES): Cc1ncsc1-c1ccc([C@H](C)NC(=O)[C@@H]2C[C@@H](O)CN2C(=O)[C@@H](NC(=O)CCCCCC(=O)N2CCN(CC[C@H](CSc3ccccc3)Nc3ccc(S(=O)(=O)NC(=O)c4ccc(N5CCN(CC6=C(c7ccc(Cl)cc7)CCC(C)(C)C6)CC5)cc4)cc3S(=O)(=O)C(F)(F)F)CC2)C(C)(C)C)cc1 [Control compound, DT2216, reference compound]

DC50 (BCL-xL proteins): 8.8 nM | IC50 (MOLT-4 cells; Homo sapiens): < 500 nM
Structure (SMILES): Cc1ncsc1-c1ccc([C@H](C)NC(=O)[C@@H]2C[C@@H](O)CN2C(=O)[C@@H](NC(=O)CCCCCC(=O)N2C[C@H]3CN(CC[C@H](CSc4ccccc4)Nc4ccc(S(=O)(=O)NC(=O)c5ccc(N6CCN(CC7=C(c8ccc(Cl)cc8)CCC(C)(C)C7)CC6)cc5)cc4S(=O)(=O)C(F)(F)F)C[C@H]3C2)C(C)(C)C)cc1 [Compound 8, cis-(2S,4R)-1-((2S)-2-(7-(5-((R)-3-((4-(N-(4-(4-((4′-chloro-4,4-dimethyl-3,4,5,6-tetrahydro-[1,1′-biphenyl]-2-yl)methyl)piperazin-1-yl)benzoyl)sulfamoyl)-2-((trifluoromethyl)sulfonyl)phenyl)amino)-4-(phenylthio)butyl)hexahydropyrrolo[3,4-c]pyrrol-2(1H)-yl)-7-oxoheptanamido)-3,3-dimethylbutanoyl)-4-hydroxy-N—((S)-1-(4-(4-methylthiazol-5-yl)phenyl)ethyl)pyrrolidine-2-carboxamide]

DC50 (BCL-xL proteins): 3.7 nM | IC50 (MOLT-4 cells; Homo sapiens): < 500 nM
Structure (SMILES): Cc1ncsc1-c1ccc([C@H](C)NC(=O)[C@@H]2C[C@@H](O)CN2C(=O)[C@@H](NC(=O)CCCCCC(=O)N2C[C@H]3C[C@@H]2CN3CC[C@H](CSc2ccccc2)Nc2ccc(S(=O)(=O)NC(=O)c3ccc(N4CCN(CC5=C(c6ccc(Cl)cc6)CCC(C)(C)C5)CC4)cc3)cc2S(=O)(=O)C(F)(F)F)C(C)(C)C)cc1 [Compound 10, (2S,4R)-1-((S)-2-(7-((1R,4R)-5-((R)-3-((4-(N-(4-(4-((4′-chloro-4,4-dimethyl-3,4,5,6-tetrahydro-[1,1′-biphenyl]-2-yl)methyl)piperazin-1-yl)benzoyl)sulfamoyl)-2-((trifluoromethyl)sulfonyl)phenyl)amino)-4-(phenylthio)butyl)-2,5-diazabicyclo[2.2.1]heptan-2-yl)-7-oxoheptanamido)-3,3-dimethylbutanoyl)-4-hydroxy-N—((S)-1-(4-(4-methylthiazol-5-yl)phenyl)ethyl)pyrrolidine-2-carboxamide]
